According to publication PMC3253173 (Free radical biology & medicine, 2011):

Target: T1, gp91phox (Homo sapiens, UniProt P04839)
T1 sequence (P04839 2-570): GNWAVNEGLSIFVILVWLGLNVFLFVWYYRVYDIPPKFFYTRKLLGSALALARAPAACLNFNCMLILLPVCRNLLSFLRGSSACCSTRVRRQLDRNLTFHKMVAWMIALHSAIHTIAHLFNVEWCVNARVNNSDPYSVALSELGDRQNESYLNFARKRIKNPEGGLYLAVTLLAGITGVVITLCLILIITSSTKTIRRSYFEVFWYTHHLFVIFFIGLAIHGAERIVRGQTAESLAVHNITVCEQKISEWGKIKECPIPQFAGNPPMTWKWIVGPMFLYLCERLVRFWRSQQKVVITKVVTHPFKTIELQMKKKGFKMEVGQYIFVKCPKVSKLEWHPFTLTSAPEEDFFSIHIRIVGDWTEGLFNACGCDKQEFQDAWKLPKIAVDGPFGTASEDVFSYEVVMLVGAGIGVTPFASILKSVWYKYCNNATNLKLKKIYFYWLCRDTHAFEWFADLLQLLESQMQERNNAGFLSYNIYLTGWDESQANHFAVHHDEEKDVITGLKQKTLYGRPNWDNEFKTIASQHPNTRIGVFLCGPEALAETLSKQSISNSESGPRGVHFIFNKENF
T1 sequence (P13498 2-195 partner): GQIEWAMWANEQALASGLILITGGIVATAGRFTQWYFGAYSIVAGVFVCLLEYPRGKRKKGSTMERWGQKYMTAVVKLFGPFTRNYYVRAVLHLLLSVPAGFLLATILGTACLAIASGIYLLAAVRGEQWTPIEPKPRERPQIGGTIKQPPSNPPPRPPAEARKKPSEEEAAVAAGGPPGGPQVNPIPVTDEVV
Test: saturation radioligand binding on COS-cytob558 membranes

Question: Which Kd does the source give for `C=C(C)[C@H]1Cc2c(ccc3c2O[C@@H]2COc4cc(OC)c(OC)cc4[C@@H]2C3=O)O1` [rotenone] here?
Answer: Its Kd is 21.2 ± 3.47 nM.
